# From US20100298141A1, “SUBSTITUTED PYRIDINE N-OXIDE HERBICIDES” (E. I. DU PONT DE NEMOURS AND COMPANY, priority 2007, published 2010)
# Legend:
# [1] = tested on: barnyardgrass; assay: Test A pre-/postemergence greenhouse test; format: in vivo, Echinochloa crus-galli; conditions: for Barnyardgrass plant response rating: 125 g ai/ha, 0 to 100 scale
# Summary of the method: (§1)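 Planting was into mixed loam soil and sand; preemergence treatment followed as a directed soil spray. Concurrently, emerged plants (one- to two-leaf, 2–10 cm) received postemergence applications of identically formulated compound (non-phytotoxic solvent, surfactant). After approximately ten days under greenhouse conditions, injury was judged by eye against untreated plants.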
# [2] = tested on: crabgrass; assay: Test A pre-/postemergence greenhouse test; format: in vivo, Digitaria sanguinalis; conditions: for Crabgrass, Large plant response rating: 0 to 100 scale
# Summary of the method: as §1
# [3] = tested on: velvetleaf; assay: Test A pre-/postemergence greenhouse test; format: in vivo, Abutilon theophrasti; conditions: for Velvetleaf plant response rating: Postemergence, 0 to 100 scale, 0 is no effect, 100 is complete control
# Summary of the method: as §1
# [4] = tested on: corn; assay: Test A pre-/postemergence greenhouse test; format: in vivo, Zea mays; conditions: 500 g ai/ha
# Summary of the method: as §1
# [5] = tested on: green foxtail; assay: Test C pre-/postemergence test; format: in vivo, Setaria viridis
# Summary of the method: (§2)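 Compounds in a non-phytotoxic solvent with surfactant applied preemergence to seeded pots and, at the same time, postemergence to plants 2–18 cm tall (1- to 4-leaf stage). Paddy tests: pots flooded to 3 cm, compound applied into the water, depth held throughout.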
# [6] = tested on: Italian ryegrass; assay: Test C pre-/postemergence test; format: in vivo, Lolium multiflorum
# Summary of the method: as §2
# [7] = tested on: bermudagrass; assay: Test C pre-/postemergence test; format: in vivo, Cynodon dactylon
# Summary of the method: as §2
# [8] = tested on: corn; assay: Test C pre-/postemergence test; format: in vivo, Zea mays
# Summary of the method: as §2
# [9] = tested on: crabgrass; assay: Test C pre-/postemergence test; format: in vivo, Digitaria sanguinalis
# Summary of the method: as §2
# [10] = tested on: Goosegrass; assay: Test C pre-/postemergence test; format: in vivo, Eleusin indica
# Summary of the method: as §2
# [11] = tested on: johnsongrass; assay: Test C pre-/postemergence test; format: in vivo, Sorghum halepense
# Summary of the method: as §2
# [12] = tested on: yellow nutsedge; assay: Test C pre-/postemergence test; format: in vivo, Cyperus esculentus
# Summary of the method: as §2
# [13] = tested on: pigweed; assay: Test C pre-/postemergence test; format: in vivo, Amaranthus retroflexus
# Summary of the method: as §2
# [14] = tested on: soybean; assay: Test C pre-/postemergence test; format: in vivo, Glycine max
# Summary of the method: as §2
# [15] = tested on: umbrella sedge; assay: Test C flooded paddy test; format: in vivo, Cyperus difformis; conditions: Flood
# Summary of the method: (§3)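 Test compounds are applied straight into paddy water held 3 cm above the soil surface, with that flood maintained for the whole test. After 13 to 15 days in the greenhouse, each species is scored visually relative to controls.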
# [16] = tested on: duck salad; assay: Test C flooded paddy test; format: in vivo, Heteranthera limosa; conditions: Flood
# Summary of the method: as §3
# [17] = tested on: barnyardgrass; assay: Test C flooded paddy test; format: in vivo, Echinochloa crus-galli; conditions: Flood
# Summary of the method: as §3
# [18] = Preemergence, 500 g ai/ha, 0 to 100 scale where 0 is no effect and 100 is complete control
# [19] = 31 g ai/ha, Preemergence, scale 0 to 100
# [20] = 62 g ai/ha, preemergence, scale 0 (no effect) to 100 (complete control)
# [21] = preemergence, 125 g ai/ha, scale 0 (no effect) to 100 (complete control)
# [22] = 31 g ai/ha, scale 0 to 100 (0 no effect, 100 complete control)
# [23] = 62 g ai/ha, scale 0 to 100, 0 no effect, 100 complete control, 13 to 15 days
# [24] = 125 g ai/ha, scale 0 to 100, 0 no effect, 100 complete control, 13 to 15 days
# [25] = 250 g ai/ha, scale 0 to 100 (0 no effect, 100 complete control)
compound,measurement,setting,value
Cn1nc(C(F)(F)F)c(CS(=O)(=O)c2ccc(Cl)c[n+]2[O-])c1OC(F)F [Compound 7],Barnyardgrass plant response rating,"[1]; Postemergence, 0 is no effect, 100 is complete control",10
same,Barnyardgrass plant response rating,"[1]; Preemergence, 0 no effect, 100 complete control",90
same,"Plant response rating, Barnyardgrass",[1]; [18],90
same,"Crabgrass, Large plant response rating","[2]; Postemergence, 125 g ai/ha, 0 is no effect, 100 is complete control",70
same,"Crabgrass, Large plant response rating","[2]; Postemergence, 500 g ai/ha, 0 is no effect, 100 is complete control",80
same,"Crabgrass, Large plant response rating","[2]; Preemergence, 125 g ai/ha, 0 no effect, 100 complete control",90
same,"Plant response rating, Crabgrass, Large",[2]; [18],90
same,Velvetleaf plant response rating,[3]; 125 g ai/ha,0
same,Velvetleaf plant response rating,[3]; 500 g ai/ha,20
same,"Plant response rating, Velvetleaf",[3]; [18],30
same,Corn plant response rating,"[4]; Postemergence, 0 to 100 scale, 0 is no effect, 100 is complete control",20
same,"Plant response rating, Corn","[4]; Preemergence, 0 to 100 scale where 0 is no effect and 100 is complete control",30
same,"Foxtail, Green plant response rating",[5]; [19],40
same,"Foxtail, Green plant response rating",[5]; [20],60
same,"Plant response rating (0 to 100), Foxtail, Green","[5]; Preemergence, 250 g ai/ha",100
same,"Foxtail, Green plant response rating",[5]; [21],80
same,"Ryegrass, Italian plant response rating",[6]; [19],0
same,"Ryegrass, Italian plant response rating",[6]; [20],40
same,"Plant response rating (0 to 100), Ryegrass, Italian","[6]; Preemergence, 250 g ai/ha",50
same,"Ryegrass, Italian plant response rating",[6]; [21],50
same,Bermudagrass plant response rating,[7]; [19],100
same,Bermudagrass plant response rating,[7]; [20],100
same,"Plant response rating (0 to 100), Bermudagrass","[7]; Preemergence, 250 g ai/ha",100
same,Bermudagrass plant response rating,[7]; [21],100
same,Corn plant response rating,[8]; [19],0
same,Corn plant response rating,[8]; [20],0
same,"Plant response rating (0 to 100), Corn","[8]; Preemergence, 250 g ai/ha",30
same,Corn plant response rating,[8]; [21],10
same,"Crabgrass, Large plant response rating",[9]; [19],100
same,"Crabgrass, Large plant response rating",[9]; [20],100
same,"Plant response rating (0 to 100), Crabgrass, Large","[9]; Preemergence, 250 g ai/ha",100
same,"Crabgrass, Large plant response rating",[9]; [21],100
same,Goosegrass plant response rating,[10]; [19],100
same,Goosegrass plant response rating,[10]; [20],100
same,"Plant response rating (0 to 100), Goosegrass","[10]; Preemergence, 250 g ai/ha",100
same,Goosegrass plant response rating,[10]; [21],100
same,Johnsongrass plant response rating,[11]; [19],90
same,Johnsongrass plant response rating,[11]; [20],100
same,"Plant response rating (0 to 100), Johnsongrass","[11]; Preemergence, 250 g ai/ha",100
same,Johnsongrass plant response rating,[11]; [21],100
same,"Nutsedge, Yellow plant response rating",[12]; [19],0
same,"Nutsedge, Yellow plant response rating",[12]; [20],0
same,"Plant response rating (0 to 100), Nutsedge, Yellow","[12]; Preemergence, 250 g ai/ha",100
same,"Nutsedge, Yellow plant response rating",[12]; [21],98
same,Pigweed plant response rating,[13]; [19],100
same,Pigweed plant response rating,[13]; [20],100
same,"Plant response rating (0 to 100), Pigweed","[13]; Preemergence, 250 g ai/ha",100
same,Pigweed plant response rating,[13]; [21],100
same,Soybean plant response rating,[14]; [19],0
same,Soybean plant response rating,[14]; [20],0
same,"Plant response rating (0 to 100), Soybean","[14]; Preemergence, 250 g ai/ha",30
same,Soybean plant response rating,[14]; [21],0
same,"Plant response rating, Sedge, Umbrella",[15]; [22],0
same,"Plant response rating, Sedge, Umbrella",[15]; [23],40
same,"Plant response rating, Sedge, Umbrella",[15]; [24],55
same,"Plant response rating, Sedge, Umbrella",[15]; [25],60
same,"Plant response rating, Ducksalad",[16]; [22],30
same,"Plant response rating, Ducksalad",[16]; [23],50
same,"Plant response rating, Ducksalad",[16]; [24],75
same,"Plant response rating, Ducksalad",[16]; [25],80
same,"Plant response rating, Barnyardgrass",[17]; [22],0
same,"Plant response rating, Barnyardgrass",[17]; [23],0
same,"Plant response rating, Barnyardgrass",[17]; [24],0
same,"Plant response rating, Barnyardgrass",[17]; [25],20
